Patent publication US20220323425A1, “CO-POTENTIATORS FOR THERAPY OF CYSTIC FIBROSIS CAUSED BY MINIMAL FUNCTION CFTR MUTANTS” (THE REGENTS OF THE UNIVERSITY OF CALIFORNIA, priority 2019, published 2022)
Like-named read-outs stand apart in the source and are kept apart here.

Assays:
Assay type in all cases: cell-based
N1303K-CFTR = N1303K-CFTR (Homo sapiens, UniProt P13569, N1303K); test: Short-circuit current in FRT cells expressing N1303K-CFTR; parameters: expressed in transfected cells; host or cells: Fischer rat thyroid (FRT) cells; settings: for EC50 / Relative Vmax (%)*: Table 1B; for EC50: cell line not given; for Relative Vmax (%)*: footnote to * not given; for short-circuit current response when added after VX-770: 20 μM forskolin, 5 μM VX-770, 20 μM test potentiator
N1303K-CFTR, sequence (P13569 whole entry N1303K): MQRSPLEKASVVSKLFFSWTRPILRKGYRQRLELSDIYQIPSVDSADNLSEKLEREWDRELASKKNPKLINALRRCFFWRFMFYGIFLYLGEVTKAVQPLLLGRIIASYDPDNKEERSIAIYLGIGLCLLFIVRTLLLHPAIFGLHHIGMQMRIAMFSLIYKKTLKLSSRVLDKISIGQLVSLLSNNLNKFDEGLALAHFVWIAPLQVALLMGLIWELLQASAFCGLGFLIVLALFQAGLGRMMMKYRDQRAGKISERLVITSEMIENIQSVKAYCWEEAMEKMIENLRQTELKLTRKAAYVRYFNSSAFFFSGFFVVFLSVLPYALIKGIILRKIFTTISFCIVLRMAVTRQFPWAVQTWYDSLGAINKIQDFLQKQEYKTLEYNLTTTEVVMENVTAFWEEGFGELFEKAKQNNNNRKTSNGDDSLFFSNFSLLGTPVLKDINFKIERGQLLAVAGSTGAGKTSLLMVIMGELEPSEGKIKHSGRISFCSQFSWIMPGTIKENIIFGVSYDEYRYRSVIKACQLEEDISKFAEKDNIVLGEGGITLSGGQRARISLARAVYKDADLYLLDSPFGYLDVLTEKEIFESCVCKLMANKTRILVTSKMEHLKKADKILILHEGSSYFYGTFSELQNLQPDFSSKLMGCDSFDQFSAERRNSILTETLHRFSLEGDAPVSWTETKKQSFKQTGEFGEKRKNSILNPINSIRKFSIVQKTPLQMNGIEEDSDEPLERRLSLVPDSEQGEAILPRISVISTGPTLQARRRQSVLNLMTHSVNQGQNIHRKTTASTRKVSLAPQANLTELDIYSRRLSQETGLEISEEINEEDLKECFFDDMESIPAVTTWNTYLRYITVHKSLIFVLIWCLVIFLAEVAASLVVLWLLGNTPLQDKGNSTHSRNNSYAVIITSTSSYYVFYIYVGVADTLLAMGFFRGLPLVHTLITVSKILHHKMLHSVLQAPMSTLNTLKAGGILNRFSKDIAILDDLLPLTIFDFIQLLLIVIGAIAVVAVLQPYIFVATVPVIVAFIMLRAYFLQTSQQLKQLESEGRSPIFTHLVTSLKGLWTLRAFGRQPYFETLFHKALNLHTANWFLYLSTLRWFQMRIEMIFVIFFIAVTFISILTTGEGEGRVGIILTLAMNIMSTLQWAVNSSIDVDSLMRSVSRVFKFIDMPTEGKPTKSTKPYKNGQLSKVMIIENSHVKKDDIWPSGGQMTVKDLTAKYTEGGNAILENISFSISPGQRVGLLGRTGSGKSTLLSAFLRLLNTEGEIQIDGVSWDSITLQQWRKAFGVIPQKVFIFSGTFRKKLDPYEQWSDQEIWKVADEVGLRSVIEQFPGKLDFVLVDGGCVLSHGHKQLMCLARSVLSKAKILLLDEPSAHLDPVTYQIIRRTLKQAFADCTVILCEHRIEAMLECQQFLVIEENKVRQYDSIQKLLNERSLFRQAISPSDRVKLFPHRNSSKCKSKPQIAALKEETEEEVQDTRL
Protocol: (§1) Short-circuit current was measured on cells cultured on permeable supports (Corning) as described (Haggie, 2017; Phuan, 2018). For FRT cells, the basolateral membrane was permeabilized with 250 μg/mL amphotericin B, and experiments were done using a HCO3^−-buffered system (in mM: 120 NaCl, 5 KCl, 1 MgCl2, 1 CaCl2), 5 Hepes, 25 NaHCO3, 10 glucose, pH 7.4) with a basolateral to apical chloride gradient (60 mM NaCl replaced by sodium gluconate in the apical solution). For human airway epithelial cells, symmetrical HCO3^−-buffered solutions (containing 120 mM NaCl) were used. Cells were equilibrated with 95% O2, 5% CO2 and maintained at 37° C. Hemichambers were connected to a DVC-1000 voltage clamp (World Precision Instruments Inc., Sarasota, Fla.) via Ag/AgCl electrodes and 3 M KCl agar bridges for recording of the short-circuit current.
(§2) GraphPad Prism software (GraphPad Inc., San Diego, Calif., USA) was used for statistical analysis. EC50 values were determined by non-linear regression to a single-site inhibition model. Statistical significance was determined using unpaired Student's t test, with P<0.05 considered significant.
Co-potentiator efficacy was initially determined by short-circuit current measurements in FRT cells expressing N1303K-CFTR in the presence of a transepithelial chloride gradient and with permeabilization of the basolateral cell membrane such that measured current directly reports CFTR channel activity. […] We previously defined potentiators as either class I compounds, including VX-770 and GLPG1837, or class II compounds such as the arylsulphonamide-pyrrolopyridine and spiro[piperidine-4,1-pyrido[3,4-b]indole] copotentiators that probably bind at distinct sites on CFTR. N1303K-CFTR expressing FRT cells treated with forskolin and GLPG1837 had similar 2i co-potentiator EC50 of 0.8±0.2 μM (FIG. 7B).

W1282X-CFTR = molecular target: T1, W1282X-CFTR (Homo sapiens, UniProt P13569); test: Structure-activity testing of co-potentiator analogs in FRT cells expressing W1282X-CFTR; settings: for Relative Vmax (%)*: 100% Vmax corresponds to 20 μM ASP-11; for EC50: FRT cells expressing W1282X-CFTR
T1 construct: CFTR1281 (the truncation product generated by W1282X-CFTR); expressed in transfected cells
T1 sequence (P13569 1-1281 limits assumed): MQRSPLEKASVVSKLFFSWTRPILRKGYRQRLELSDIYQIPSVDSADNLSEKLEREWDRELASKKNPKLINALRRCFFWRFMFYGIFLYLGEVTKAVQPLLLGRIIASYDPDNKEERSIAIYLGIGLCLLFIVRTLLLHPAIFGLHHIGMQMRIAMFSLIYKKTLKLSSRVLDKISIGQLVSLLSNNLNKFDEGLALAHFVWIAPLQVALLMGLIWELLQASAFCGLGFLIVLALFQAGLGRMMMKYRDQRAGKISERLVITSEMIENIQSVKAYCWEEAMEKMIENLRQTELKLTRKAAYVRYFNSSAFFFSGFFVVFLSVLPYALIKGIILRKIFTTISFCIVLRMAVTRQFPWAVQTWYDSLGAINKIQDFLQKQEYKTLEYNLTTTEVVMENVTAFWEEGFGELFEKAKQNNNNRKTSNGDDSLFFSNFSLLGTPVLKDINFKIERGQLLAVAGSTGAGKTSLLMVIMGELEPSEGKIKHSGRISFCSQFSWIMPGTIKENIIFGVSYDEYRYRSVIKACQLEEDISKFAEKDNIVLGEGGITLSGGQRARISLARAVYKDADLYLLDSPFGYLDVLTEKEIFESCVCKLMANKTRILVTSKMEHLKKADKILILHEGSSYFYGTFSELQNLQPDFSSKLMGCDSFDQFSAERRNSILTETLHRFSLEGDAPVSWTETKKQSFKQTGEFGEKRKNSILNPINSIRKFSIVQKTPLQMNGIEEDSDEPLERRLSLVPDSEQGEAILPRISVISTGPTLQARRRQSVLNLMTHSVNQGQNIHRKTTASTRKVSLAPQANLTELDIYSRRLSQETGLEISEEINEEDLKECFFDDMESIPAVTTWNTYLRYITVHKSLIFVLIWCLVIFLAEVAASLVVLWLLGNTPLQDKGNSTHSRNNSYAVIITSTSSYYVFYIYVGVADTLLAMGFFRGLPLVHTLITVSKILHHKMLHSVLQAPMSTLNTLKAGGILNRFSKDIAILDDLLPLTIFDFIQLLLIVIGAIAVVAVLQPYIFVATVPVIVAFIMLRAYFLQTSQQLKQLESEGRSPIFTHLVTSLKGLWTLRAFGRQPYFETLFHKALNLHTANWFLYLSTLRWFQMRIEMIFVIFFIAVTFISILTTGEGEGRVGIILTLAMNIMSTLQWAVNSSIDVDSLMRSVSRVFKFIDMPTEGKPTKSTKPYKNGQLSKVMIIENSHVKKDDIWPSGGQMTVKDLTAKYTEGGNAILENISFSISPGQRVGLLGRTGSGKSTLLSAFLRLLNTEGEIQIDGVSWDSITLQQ
Protocol: To establish structure-activity relationships, 240 commercially available spiro[piperidine-4,1pyrido[3,4-b]indoles]analogs and 160 pyrazoloquinoline analogs were tested in FRT cells expressing W 1282X-CFTR. FIG. 5A summarizes the structural determinants for activity for the spiro[piperidine-4,1pyrido[3,4-b]indoles] reported in Table 1A (CP-Axxx designations).
High-throughput screening used a semi-automated screening platform (Beckman, Fullerton, Calif.) as described (Haggie, 2017). FRT cells expressing W1282X and YFP were plated in 96-well black-walled, clear-bottom tissue culture plates (Corning) at a density of 20,000 cells/well and grown for 24 h at 37° C. to ˜90% confluency. Cells were treated with 3 μM VX-809 for 24 hours. Cells were then washed twice with PBS, and incubated in 100 μl of PBS containing forskolin (10 μM), VX-770 (15 nM) and test compounds (25 μM) for 10 min prior to assay of CFTR activity. All plates contained wells with positive (5 μM VX-770+20 μM ASP-11) and negative (5 μM VX-770) controls. Assays were done using a BMG Labtech FLUOstar OMEGA plate reader (Cary, N.C.) over 12 s with initial fluorescence intensity recorded for 2 s prior to addition of 100 μl of NaI-substituted PBS (137 mM NaCl replaced with NaI). Initial iodide influx was computed from fluorescence intensity by single exponential regression. […]
as §2

Q1313X-CFTR = molecular target: T2, Q1313X-CFTR (Homo sapiens, UniProt P13569); test: Short-circuit current in FRT cells expressing Q1313X-CFTR; settings: 20 μM forskolin; for short-circuit current response when added after VX-770: 5 μM VX-770, 25 μM apigenin, others 20 μM
T2 construct: several truncated forms of CFTR resulting from premature termination codons (PTCs) located in NBD2; expressed in transfected cells; host or cells: FRT cells, pIRESpuro3 vector, puromycin-selected clonal lines
T2 sequence (P13569 1-1312 limits assumed): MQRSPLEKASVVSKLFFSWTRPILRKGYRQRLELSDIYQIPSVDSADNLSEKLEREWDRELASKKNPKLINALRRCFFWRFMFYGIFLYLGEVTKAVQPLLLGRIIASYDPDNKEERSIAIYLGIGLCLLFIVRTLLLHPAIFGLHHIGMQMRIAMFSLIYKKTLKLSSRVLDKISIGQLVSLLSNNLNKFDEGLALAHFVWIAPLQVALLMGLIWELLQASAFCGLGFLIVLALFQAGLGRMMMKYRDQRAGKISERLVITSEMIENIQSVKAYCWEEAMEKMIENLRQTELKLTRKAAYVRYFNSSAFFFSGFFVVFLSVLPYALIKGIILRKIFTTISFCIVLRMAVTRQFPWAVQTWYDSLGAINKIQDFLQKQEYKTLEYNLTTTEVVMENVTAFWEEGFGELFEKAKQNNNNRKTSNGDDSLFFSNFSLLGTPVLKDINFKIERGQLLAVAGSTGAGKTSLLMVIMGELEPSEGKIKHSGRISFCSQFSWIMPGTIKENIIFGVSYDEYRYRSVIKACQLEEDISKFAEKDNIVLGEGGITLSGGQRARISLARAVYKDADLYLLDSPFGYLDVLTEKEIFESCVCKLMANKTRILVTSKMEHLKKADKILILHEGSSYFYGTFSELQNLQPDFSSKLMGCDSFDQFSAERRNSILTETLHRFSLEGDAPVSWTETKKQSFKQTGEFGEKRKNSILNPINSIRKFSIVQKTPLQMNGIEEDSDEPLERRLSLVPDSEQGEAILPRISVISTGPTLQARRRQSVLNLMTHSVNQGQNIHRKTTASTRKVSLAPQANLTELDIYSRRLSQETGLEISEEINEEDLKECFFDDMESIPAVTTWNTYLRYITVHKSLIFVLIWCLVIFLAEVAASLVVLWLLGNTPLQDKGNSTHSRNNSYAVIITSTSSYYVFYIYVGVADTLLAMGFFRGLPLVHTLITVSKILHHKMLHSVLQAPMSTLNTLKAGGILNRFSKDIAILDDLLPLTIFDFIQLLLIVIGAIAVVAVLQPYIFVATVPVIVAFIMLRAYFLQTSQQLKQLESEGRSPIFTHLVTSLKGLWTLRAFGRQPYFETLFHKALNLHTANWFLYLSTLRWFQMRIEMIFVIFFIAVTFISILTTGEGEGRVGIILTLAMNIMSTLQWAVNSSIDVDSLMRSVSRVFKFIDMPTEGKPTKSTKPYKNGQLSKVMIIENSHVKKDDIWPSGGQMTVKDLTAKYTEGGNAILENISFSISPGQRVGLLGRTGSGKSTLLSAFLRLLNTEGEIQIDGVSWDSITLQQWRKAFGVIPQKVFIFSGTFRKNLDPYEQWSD
Protocol: as §1, §2

SMILES	Relative Vmax (%)* (W1282X-CFTR; Table 1A)	EC50 (W1282X-CFTR; Table 1A, read-out: EC50 (μM)))	Relative Vmax (%)* (W1282X-CFTR; Table 2)	EC50 (W1282X-CFTR; Table 2, read-out: EC50)	other results
COc1ccc2[nH]c3c(c2c1)CCNC31CCN(Cc2ccc(F)c(Cl)c2F)CC1 [Compound 1j, 1-(3-Chloro-2,4-difluorobenzyl)-6′-methoxy-2′,3′,4′,9′-tetrahydrospiro[piperidine-4,1′-pyrido[3,4-b]indole]]					EC50 (N1303K-CFTR): 4.5 µM; Relative Vmax (%)* (N1303K-CFTR): 120%
COc1ccc2[nH]c3c(c2c1)CCNC31CCN(Cc2cc(F)c(F)c(F)c2)CC1 [Compound 2d, 6′-Methoxy-1-(3,4,5-trifluorobenzyl)-2′,3′,4′,9′-tetrahydrospiro[piperidine-4,1′-pyrido[3,4-b]indole]]					EC50 (N1303K-CFTR): 2.6 µM; Relative Vmax (%)* (N1303K-CFTR): 121%
COc1ccc2[nH]c3c(c2c1)CCNC31CCN(Cc2c(F)c(F)c(F)c(F)c2F)CC1 [Compound 2e, 6′-Methoxy-1-((perfluorophenyl)methyl)-2′,3′,4′,9′-tetrahydrospiro[piperidine-4,1′-pyrido[3,4-b]indole]]					EC50 (N1303K-CFTR): 2.1 µM; Relative Vmax (%)* (N1303K-CFTR): 134%
COc1ccc2[nH]c3c(c2c1)CCNC31CCN(Cc2ccc(F)c(F)c2F)CC1 [Compound 2g, 6′-Methoxy-1-(2,3,4-trifluorobenzyl)-2′,3′,4′,9′-tetrahydrospiro[piperidine-4,1′-pyrido[3,4-b]indole]]					EC50 (N1303K-CFTR): 4.1 µM; Relative Vmax (%)* (N1303K-CFTR): 100%
Fc1ccc(CN2CCC3(CC2)NCCc2c3[nH]c3ccc(Cl)cc23)c(F)c1 [Compound 5c, 6′-Chloro-1-(2,4-difluorobenzyl)-2′,3′,4′,9′-tetrahydrospiro[piperidine-4,1′-pyrido[3,4-b]indole]]					EC50 (N1303K-CFTR): 2.5 µM; Relative Vmax (%)* (N1303K-CFTR): 89%
COc1ccc2c3c([nH]c2c1)C1(CCN(Cc2ccc(F)cc2F)CC1)NCC3 [Compound 5d, 1-(2,4-Difluorobenzyl)-7′-methoxy-2′,3′,4′,9′-tetrahydrospiro[piperidine-4,1′-pyrido[3,4-b]indole]]					EC50 (N1303K-CFTR): 2.4 µM; Relative Vmax (%)* (N1303K-CFTR): 100%
COc1ccc2[nH]c3c(c2c1)CCNC31CCN(S(C)(=O)=O)CC1 [Compound A145]	7%	> 30 µM			
CCC(=O)N1CCC2(CC1)NCCc1c2[nH]c2ccc(OC)cc12 [Compound A350]	7%	> 30 µM			
c1ccc(CN2CCC3(CC2)NCCc2c3[nH]c3ccccc23)cc1 [Compound A357]	31%	16 µM			
COc1cccc(CN2CCC3(CC2)NCCc2c3[nH]c3ccccc23)c1 [Compound A534]	24%	13 µM			
COc1cccc(CN2CCC3(CC2)c2[nH]c4ccccc4c2CCN3C)c1 [Compound A600]	4%	> 30 µM			
COc1ccc2[nH]c3c(c2c1)CCNC31CCN(Cc2ccc(F)c(F)c2)CC1 [Compound A662]	100%	2.6 µM			
COc1ccc2[nH]c3c(c2c1)CCNC31CCN(Cc2scnc2C)CC1 [Compound A666]	91%	5.1 µM			
COc1ccc2[nH]c3c(c2c1)CCNC31CCN(C2CCCCC2)CC1 [Compound A714]	18%	> 30 µM			
COc1ccc2[nH]c3c(c2c1)CCNC31CCN(C)CC1 [Compound A764]	6%	> 30 µM			
O=C(c1ccccc1)N1CCC2(CC1)NCCc1c2[nH]c2ccccc12 [Compound A815]	−4%	> 30 µM			

SMILES	Relative Vmax (%)* (W1282X-CFTR; Table 1A)	EC50 (W1282X-CFTR; Table 1A, read-out: EC50 (μM)))	Relative Vmax (%)* (W1282X-CFTR; Table 2)	EC50 (W1282X-CFTR; Table 2, read-out: EC50)	other results
COc1ccc2[nH]c3c(c2c1)CCNC31CCN(C(=O)Cc2ccccc2)CC1 [Compound A956]	6%	> 30 µM			
COc1ccc2cc3c(N)nn(C(=O)c4ccncc4)c3nc2c1 [Compound D003]			1%	> 30 µM	
COc1ccc2cc3c(N)nn(C(=O)c4ccc(F)cc4)c3nc2c1 [Compound D010]			24%	3.6 µM	
COc1ccc2cc3c(N)nn(C(=O)c4cc(OC)c(OC)c(OC)c4)c3nc2c1 [Compound D012]			3%	> 30 µM	
COc1ccc2cc3c(N)nn(C(=O)c4ccc(F)cc4Cl)c3nc2c1 [Compound D018]			92%	2.4 µM	
COc1ccc2cc3c(N)nn(C(=O)c4ccc([N+](=O)[O-])c(C)c4)c3nc2c1 [Compound D025]			3%	> 30 µM	
COc1ccc2cc3c(N)nn(C(=O)Cc4ccc([N+](=O)[O-])cc4)c3nc2c1 [Compound D035]			1%	> 30 µM	
COc1ccc2cc3c(N)nn(C(=O)c4ccc(Cl)c([N+](=O)[O-])c4)c3nc2c1 [Compound D036]			11%	> 30 µM	
COc1ccc2cc3c(N)nn(C(=O)c4ccc([N+](=O)[O-])cc4Cl)c3nc2c1 [Compound D038]			100%	1.7 µM	
COc1ccc2cc3c(N)nn(C(=O)Cc4ccc([N+](=O)[O-])cc4)c3nc2c1 [Compound D086]			3%	> 30 µM	
Cc1ccc2cc3c(N)nn(C(=O)c4ccc(F)cc4)c3nc2c1 [Compound D136]			11%	18 µM	
COc1ccc2nc3c(cc2c1)c(N)nn3C(=O)c1ccc([N+](=O)[O-])cc1Cl [Compound D138]			21%	3.4 µM	
CC(C)c1ccc(NC(=O)C(c2ccccc2)N(C)C(=O)Cc2c[nH]c3ccccc23)cc1 (centres unmarked) [Compound P2, N-methyl-N-[2-[[4-(1-methylethyl)phenyl]amino]-2-oxo-1-phenylethyl]-1H-indole-3-acetamide, reference compound]					short-circuit current response when added after VX-770 (N1303K-CFTR): did not further increase current; short-circuit current response when added after VX-770 (Q1313X-CFTR): did not elevate current
Cc1cc(C)cc(N(Cc2ccc(Cl)cc2)S(=O)(=O)c2cccn3c(C)nnc23)c1 [W1282Xpot-C01, reference compound]					short-circuit current response when added after VX-770 (N1303K-CFTR): activated N1303K-CFTR; activation by two Class II potentiators added together (N1303K-CFTR; W1282Xpot-C01 and ASP-11, 20 μM each, no Class I potentiator): little activation
O=c1cc(-c2ccc(O)cc2)oc2cc(O)cc(O)c12 [apigenin]					short-circuit current response when added after VX-770 (Q1313X-CFTR): showed synergy; short-circuit current response when added after GLPG1837 (Q1313X-CFTR; 20 μM GLPG1837): showed synergy
